Measurements as given in patent US20140163034A1, “INHIBITORS OF ANANDAMIDE TRANSPORT AND THEIR THERAPEUTIC USES” (IIT - Istituto Italiano di Tecnologia, priority 2011, published 2014).

Legend:
carrageenan-treated mice = assay: Carrageenan-induced inflammatory pain and paw edema in mice; assay type: in vivo; conditions: for effect of antagonist on the anti-hyperalgesic and anti-edema effects of ARN272: antagonist 1 mg/kg intraperitoneal, 30 min before carrageenan
Description: Behavioral experiments were performed in accordance with the Ethical Guidelines of the International Association for the Study of Pain and approved by Italian regulations on protection of animals used for experimental and other scientific purposes (D.M. 116192) as well as with European Economic Community regulations (O.J. of E.C. L 358/1 Dec. 18, 1986). Behavioral testing was performed between 9:00 a.m. and 5:00 p.m., in a quiet room, during the light cycle. Mice were used once and were sacrificed at the end of the experiment by cervical dislocation. edema was elicited by injecting λ-carrageenan (1% weight/vol in sterile water, 20 μl) into the left hindpaw of mice. Edema was measured with a plethysmometer (Ugo Basile, Comerio, Italy) at different time intervals. Drug solutions were prepared immediately before use in saline containing 10% PEG-400 and 10% Tween 80. Mechanical hyperalgesia was determined by measuring the latency in seconds to withdraw the paw away from a constant mechanical pressure exerted onto the dorsal surface. A 15-g calibrated glass cylindrical rod (diameter=10 mm) chambered to a conical point (diameter=3 mm) was used to exert the mechanical force. The weight was suspended vertically between two rings attached to a stand and was free to move vertically. A cutoff time of 180 s was used. Withdrawal thresholds were measured on both the inflamed paw (ipsilateral) and not inflamed paw (contralateral) 2, 4, 6 and 24 hours after carrageenan injection. Thermal hyperalgesia was assessed by the method of Hargreaves et al. (1988) by measuring the latency to withdraw the hind paw from a focused beam of radiant heat (thermal intensity: infrared 3.0) applied to the plantar surface using a plantar test apparatus (Ugo Basile). The cutoff time was set at 30 s. Withdrawal latency were measured on both inflamed and not-inflamed paws ( ) 2, 4, 6 and 24 hours after carrageenan injection. Vehicle or ARN272 (0.01-3 mg/kg, intraperitoneal) were injected immediately before carrageenan. AM251, AM630 and AMG 9810 (1 mg/kg, intraperitoneal) were injected 30 min before carrageenan.

rat FLAT-GST = biological target: T1, rat FLAT-GST (Rattus norvegicus, UniProt P97612, DEL9-76); assay: [3H]-anandamide binding to purified GST-FLAT fusion protein
T1 construct: made in house; host or cells: E. coli BL21
T1 sequence (P97612 with tags, fused parts or gaps DEL9-76): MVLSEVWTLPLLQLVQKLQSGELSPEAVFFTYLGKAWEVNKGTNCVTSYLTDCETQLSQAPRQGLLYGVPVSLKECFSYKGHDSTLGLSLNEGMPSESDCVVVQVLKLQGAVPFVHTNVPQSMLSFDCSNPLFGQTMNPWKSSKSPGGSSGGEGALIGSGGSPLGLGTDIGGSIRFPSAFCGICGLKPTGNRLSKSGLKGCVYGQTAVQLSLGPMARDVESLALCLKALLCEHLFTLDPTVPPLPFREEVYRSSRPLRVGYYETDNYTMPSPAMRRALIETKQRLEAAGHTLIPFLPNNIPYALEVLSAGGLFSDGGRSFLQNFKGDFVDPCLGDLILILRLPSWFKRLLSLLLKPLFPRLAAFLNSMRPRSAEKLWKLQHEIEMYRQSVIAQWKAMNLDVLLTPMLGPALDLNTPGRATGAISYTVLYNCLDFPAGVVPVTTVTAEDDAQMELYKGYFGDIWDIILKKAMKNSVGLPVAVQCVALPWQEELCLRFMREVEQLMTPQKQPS
Description: A pGEX-rFLAT plasmid containing fused rat FLAT and GST genes was constructed into a pGEX-4T vector (Amersham Biosciences, Piscataway, N.J.) and digested with BamH 1. The GST-FLAT fusion protein was generated in E. coli (BL21 strain, Novagen, San Diego, Calif.). E. coli were cultured in 2× yeast extract medium and induced with isopropyl-1-thio-β-D-galactopyranoside (IPTG) (0.1 mM). After induction, bacteria were grown at 27° C. for 10 h and harvested by centrifugation. The GST-FLAT fusion protein was purified using glutathione-sepharose beads (Amersham Biosciences), following manufacturer's instructions. Purified GST-FLAT was incubated at 25° C. for 2 h in HEPES buffer (50 mM, pH 7.0) containing KCl (50 mM), EDTA (5 mM), dithiothreitol (10 mM), and [^3H]-anandamide (15 Ci/mmol). Free from bound [^3H]-anandamide was separated on a Sephadex G-25 spin column (Amersham Biosciences) and radioactivity in the bound fraction was measured by liquid scintillation counting. Non-specific binding was determined in the presence of non-radioactive anandamide (10 μM).

[1] = biological target: T2, FLAT-expressing Hek293 cells (Rattus norvegicus, UniProt P97612, DEL9-76); assay: [3H]-anandamide accumulation (translocation) in FLAT-expressing Hek293 cells; assay type: cell-based; conditions: for IC50: 5 min at 37° C., read-out: IC50, inhibition of [3H]-anandamide accumulation in FLAT-expressing Hek293 cells
T2 construct: expressed in transfected cells
T2 sequence (P97612 with tags, fused parts or gaps DEL9-76): T1 sequence (P97612 with tags, fused parts or gaps DEL9-76)

[2] = system: rat cortical neurons in primary cultures; assay: [3H]-anandamide accumulation in rat cortical neurons in primary cultures; assay type: cell-based; conditions: Cortical neurone, read-out: IC50, inhibition of [3H]-anandamide accumulation in rat cortical neurons
Description: Primary cultures of rat cortical neurons were prepared as described (Evans, M. S. et al., J Neurosci Methods, 79, 37 (1998)). Briefly, cerebral cortices from 18 day-old rat embryos were dissected and cells were dissociated gently with a glass Pasteur pipette in phosphate-buffered saline (PBS, 10 mM, pH=7.5) containing glucose (6%, weight/volume). The cells were plated in 6-well plates (at a density of 5×10^5 cells per well) coated with poly-(L)-ornithine (10 μg/ml) and poly(DL)-lysine (100 μg/ml), and cultured in Eagle's Minimum Essential Medium (MEM) supplemented with heat-inactivated horse serum (5%, vol/vol) and fetal bovine serum (FBS, 5%, vol/vol), glucose (30 mM), L-glutamine (2 mM), penicillin (10 units/ml), streptomycin (10 μg/ml) and HEPES (15 mM, pH 7.4). After 3 days in culture, media were replaced with Neurobasal (Invitrogen, Carlsbad, Calif.) supplemented with B-27 containing L-glutamine (0.1 mM), streptomycin (10 μg/ml) and penicillin (10 units/ml). The cultures were maintained at 37° C. in a humidified atmosphere of 95% air and 5% CO2. […] The cells were rinsed twice with Tris-Krebs buffer, scraped twice into sodium hydroxide (0.2 N, 0.5 ml) and transferred into scintillation vials. […] All experiments were conducted in triplicate.

rat brain FAAH = biological target: T3, rat brain FAAH (Rattus norvegicus, UniProt P97612); assay: FAAH activity assay, rat brain; assay type: biochemical; conditions: weak and incomplete inhibition
T3 construct: from tissue; host or cells: rat brain membranes
T3 sequence (P97612 1-579): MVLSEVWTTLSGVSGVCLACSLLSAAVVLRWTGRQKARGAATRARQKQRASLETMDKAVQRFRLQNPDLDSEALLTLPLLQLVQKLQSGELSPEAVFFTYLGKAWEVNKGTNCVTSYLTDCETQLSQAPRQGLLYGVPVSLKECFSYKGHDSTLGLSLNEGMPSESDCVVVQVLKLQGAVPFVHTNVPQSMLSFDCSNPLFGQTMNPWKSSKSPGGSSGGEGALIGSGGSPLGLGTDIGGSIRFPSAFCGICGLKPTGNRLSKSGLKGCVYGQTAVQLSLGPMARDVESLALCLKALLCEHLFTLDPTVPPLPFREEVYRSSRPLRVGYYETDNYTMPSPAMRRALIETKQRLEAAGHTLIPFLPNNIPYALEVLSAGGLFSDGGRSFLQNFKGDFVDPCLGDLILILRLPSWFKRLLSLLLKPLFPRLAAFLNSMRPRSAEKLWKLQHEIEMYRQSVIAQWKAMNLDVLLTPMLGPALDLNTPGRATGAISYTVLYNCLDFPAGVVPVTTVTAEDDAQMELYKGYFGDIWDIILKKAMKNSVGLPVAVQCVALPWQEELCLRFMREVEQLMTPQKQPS
Description: Cells were harvested and subjected to sonication in Tris-HCl buffer (50 mM, pH 8.0) containing sucrose ([…]). Debris was removed by centrifugation for 5 min at 1,000×g, and protein concentration measured using a commercial kit (Bio-Rad, Hercules, Calif.). […] After stopping the reactions with chloroform/methanol (1:1, vol/vol, 1 ml), radioactivity was measured in the aqueous layers.

[3] = Fatty acid amide measurements ex vivo (plasma levels in mice); conditions: 1 mg/kg intraperitoneal
Description: CD1 mice received intraperitoneal injections of vehicle (5% polyethylene glycol 400-5% Tween-80 in saline, 5 ml/kg) or ARN272 (1 mg/kg) and were sacrificed 1 h or 2 h later under isoflurane anaesthesia. Blood was collected through a left cardiac puncture and centrifuged at 2000×g for 30 min. Plasma (0.2 ml) was incubated with 1 ml cold acetone, centrifuged at 1,500×g for 15 min at 4° C. and suspended in 50% methanol (2 ml) containing the following deuterium-containing standards: […] Lipids were reconstituted in methanol (0.1 ml) and measured by isotope-dilution liquid chromatography/mass spectrometry (Fu, J. et al., J Biol Chem, 282, 1518 (2007)).

recombinant human FAAH-1 = biological target: T4, recombinant human FAAH-1 (Homo sapiens, UniProt O00519); assay: Hydrolysis of compound by incubation with recombinant human FAAH-1; assay type: in vitro ADME; conditions: after 24 h at 25° C.
T4 sequence (O00519 1-579): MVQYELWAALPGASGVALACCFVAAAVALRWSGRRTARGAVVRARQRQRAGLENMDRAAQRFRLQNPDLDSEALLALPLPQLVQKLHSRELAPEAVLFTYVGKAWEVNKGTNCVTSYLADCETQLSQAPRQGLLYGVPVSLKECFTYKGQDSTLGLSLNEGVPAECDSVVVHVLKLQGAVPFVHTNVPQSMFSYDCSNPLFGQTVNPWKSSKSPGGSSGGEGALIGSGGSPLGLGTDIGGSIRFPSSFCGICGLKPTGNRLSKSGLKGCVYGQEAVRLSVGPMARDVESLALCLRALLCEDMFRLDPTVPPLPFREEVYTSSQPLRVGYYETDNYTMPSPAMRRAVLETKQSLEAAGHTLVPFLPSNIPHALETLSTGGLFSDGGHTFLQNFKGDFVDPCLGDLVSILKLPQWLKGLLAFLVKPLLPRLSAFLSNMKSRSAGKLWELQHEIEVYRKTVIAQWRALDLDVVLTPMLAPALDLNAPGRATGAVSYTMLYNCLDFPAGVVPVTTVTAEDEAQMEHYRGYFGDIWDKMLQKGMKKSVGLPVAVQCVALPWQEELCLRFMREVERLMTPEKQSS

[4] = biological target: T5, CB1 cannabinoid receptors (Rattus norvegicus, UniProt P20272); assay: Cannabinoid receptor binding assay, [3H]-CP55940 to rat brain membranes
T5 construct: Brain membrane protein (50 μg) was incubated at 30° C. for 1 hr; from tissue; host or cells: rat brain membranes

rat cortical neurons = conditions: read-out: apparent Michaelis constant, KM, of anandamide transport; cited from earlier work

T5 sequence (P20272 whole entry): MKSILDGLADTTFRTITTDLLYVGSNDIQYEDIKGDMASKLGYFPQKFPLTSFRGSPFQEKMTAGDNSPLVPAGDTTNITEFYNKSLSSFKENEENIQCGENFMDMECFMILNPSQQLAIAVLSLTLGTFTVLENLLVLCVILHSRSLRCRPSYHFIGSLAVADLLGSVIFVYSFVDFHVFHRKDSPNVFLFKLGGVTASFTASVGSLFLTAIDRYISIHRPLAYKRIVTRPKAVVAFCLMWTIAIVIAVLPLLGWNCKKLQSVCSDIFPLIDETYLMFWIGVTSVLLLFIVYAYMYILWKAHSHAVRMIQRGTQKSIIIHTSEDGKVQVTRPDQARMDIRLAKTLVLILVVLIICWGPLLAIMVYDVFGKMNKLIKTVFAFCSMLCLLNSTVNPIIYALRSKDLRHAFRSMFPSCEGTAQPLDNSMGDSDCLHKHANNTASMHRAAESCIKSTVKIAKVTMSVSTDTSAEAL

## Cc1c(C(=O)NN2CCCCC2)nn(-c2ccc(Cl)cc2Cl)c1-c1ccc(I)cc1 [AM251, reference compound]
carrageenan-treated mice
  effect of antagonist on the anti-hyperalgesic and anti-edema effects of ARN272: suppressed

## CCCCC/C=C\C/C=C\C/C=C\C/C=C\CCCC(=O)Nc1ccc(O)cc1 [AM404]
Rat FLAT-GST; purified recombinant FLAT, read-out: IC50, displacement of [3H]-anandamide binding to FLAT-GST
  IC50: 5.3 µM
[1]
  IC50: 4 µM

## COc1ccc(C(=O)c2c(C)n(CCN3CCOCC3)c3cc(I)ccc23)cc1 [AM630, reference compound]
carrageenan-treated mice
  effect of antagonist on the anti-hyperalgesic and anti-edema effects of ARN272: ineffective

## CC(C)(C)c1ccc(/C=C/C(=O)Nc2ccc3c(c2)OCCO3)cc1 [AMG9810, reference compound]
carrageenan-treated mice
  effect of antagonist on the anti-hyperalgesic and anti-edema effects of ARN272: ineffective

## O=C(Nc1ccccc1)c1ccc(Nc2nnc(-c3ccc(O)cc3)c3ccccc23)cc1 [ARN272, 4-{[4-(4-hydroxyphenyl)phthalazin-1-yl]amino-N-phenylbenzamide}]
[2]
  IC50: 1.5 µM
[1]
  IC50: 3.5 µM
Rat brain FAAH
  inhibition at 100 µM: 50%
carrageenan-treated mice; 0.01-3 mg/kg intraperitoneal
  mechanical hyperalgesia in inflamed paws: dose-dependent reduction
  thermal hyperalgesia in inflamed paws: dose-dependent reduction
carrageenan-treated mice; after intraplantar carrageenan
  duration of anti-hyperalgesic effect: up to 4 h
carrageenan-treated mice; intraperitoneal
  paw edema: substantially reduced
[3]
  plasma concentrations of anandamide: increased
  plasma levels of 2-AG: without changing
  plasma levels of OEA: without changing
  plasma levels of PEA: without changing
Recombinant human FAAH-1
  fraction hydrolyzed by recombinant human FAAH-1: ≈ 5%
[4]
  effect on [3H]-CP55940 binding to rat brain membranes: did not significantly alter

## CCCCC/C=C\C/C=C\C/C=C\C/C=C\CCCC(=O)NCc1ccoc1 [UCM707]
[1]; transport inhibitors
  effect on [3H]-anandamide accumulation in FLAT-expressing Hek293 cells: prevented

## CCCCC/C=C\C/C=C\C/C=C\C/C=C\CCCC(=O)Nc1ccc(O)cc1C [VDM11]
[1]; transport inhibitors
  effect on [3H]-anandamide accumulation in FLAT-expressing Hek293 cells: prevented

## CCCCC/C=C\C/C=C\C/C=C\C/C=C\CCCC(=O)NCCO [anandamide]
Rat FLAT-GST; saturation binding, 25° C., 2 h, read-out: dissociation constant, Kd, of [3H]-anandamide binding to FLAT-GST
  Kd: 2 µM
Rat cortical neurons
  Km: 1.2 µM
[1]; non-radioactive anandamide, 100 μM
  effect on [3H]-anandamide accumulation in FLAT-expressing Hek293 cells: prevented
